Here are results for 2 compounds from paper PMC4767496 (Oncotarget, 2015).

In data set [1] the test system is metastatic melanoma. Particulars: 38 or 120 patients, phase 3 trial, metastatic melanoma progressed after ipilimumab; cited from earlier work.
Data set [2] can be described thus: Plasma pharmacokinetics of lenvatinib. Particulars: human, in vivo. On the procedure: Tmax, Cmax, Ctrough, AUC0-t, CL (total body clearance from plasma), Vss (volume of distribution at steady […]), and t1/2 were evaluated.
Baseline and demographic variables including age, gender, race, height, weight, and ECOG performance score were summarized using descriptive statistics. […] Pearson and Spearman correlation coefficients were calculated between pharmacokinetic parameters and serum biomarkers at different time points compared with baseline to examine the correlation between drug exposure and biomarkers. Univariate and multivariate Cox proportional hazards models and log-rank tests were used to examine the relationship between PFS and baseline (and change from baseline) concentrations in angiogenesis and apoptosis biomarkers. Cumulative chi-square test was used to examine the correlation between mutation/serum biomarkers and best overall response. Pearson and Spearman correlation coefficients were also calculated between percent MTS (defined as percent change in sum of longest diameter from baseline to nadir using RECIST criteria) and serum biomarkers at different time points compared with baseline.

In data set [3] the test system is solid-tumor patients. Particulars: phase 1 studies; cited from earlier work.

As to “nivolumab: anti-PD1 receptor immune checkpoint inhibitor monoclonal antibody”, in data set [1], the Objective response rate is given as 31.7%.

As for `COc1cc2nccc(Oc3ccc(NC(=O)NC4CC4)c(Cl)c3)c2cc1C(N)=O` [Lenvatinib], the AUC(0-t) in data set [2] (Geometric mean (%CV), DL1 lenvatinib 20 mg + TMZ 100 mg/m2, Cycle 1/Day 1, n = 6) came to 3120 ng·h/mL; in data set [2] (Geometric mean (%CV), DL1 lenvatinib 20 mg + TMZ 100 mg/m2, Cycle 2/Day 1, n = 4), 4120 ng·h/mL; in data set [2] (Mean (SD), DL3 lenvatinib 24 mg + TMZ 150 mg/m2, Cycle 1/Day 1, n = 22), 3940 ng·h/mL; in data set [2] (Mean (SD), DL3 lenvatinib 24 mg + TMZ 150 mg/m2, Cycle 2/Day 1, n = 18), 4740 ng·h/mL. Moreover, in data set [2] (Median tmax, range across the cohorts), the Tmax was 1 to 8 h. Besides, the “Maximum tolerated dose (MTD)” value in data set [3] is 25 mg/day.

Usually AUC(0-t) stands for the area under the concentration-time curve up to a stated or last time point. Usually Tmax stands for the time from dosing to the highest level.
